Columns and labels:
Assay in all cases: relative viability (nuclei count vs DMSO), 5 days (fraction); higher = more cells survive
201T = test system: 201T
Summary of the method: (§1)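 Lung cancer cell lines were seeded in 1536-well plates and dosed by pin tool the next day, with either a single drug or a fixed anchor-drug dose combined with five library-drug doses (not always all listed) spaced in √10 steps. Five days later, one step fixed the cells and stained their nuclei (final 0.05% Triton X-100, 1% formaldehyde, 1 ug/ml Hoechst), and nuclei were counted on 4× images. Relative viability is the nuclei count in treated wells divided by the count in vehicle wells, and each value is the median of duplicate plates.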

BEN = test system: BEN
Summary of the method: as §1

EPLC-272H = test system: EPLC-272H
Summary of the method: as §1

HCC-15 = test system: HCC-15
Summary of the method: as §1

HCC-78 = test system: HCC-78
Summary of the method: as §1

LCLC-97TM1 = test system: LCLC-97TM1
Summary of the method: as §1

LU99A = test system: LU99A
Summary of the method: as §1

NCI-H1355 = test system: NCI-H1355
Summary of the method: as §1

NCI-H1395 = test system: NCI-H1395
Summary of the method: as §1

NCI-H2009 = test system: NCI-H2009
Summary of the method: as §1

NCI-H2085 = test system: NCI-H2085
Summary of the method: as §1

NCI-H2126 = test system: NCI-H2126
Summary of the method: as §1

NCI-H2228 = test system: NCI-H2228
Summary of the method: as §1

NCI-H23 = test system: NCI-H23
Summary of the method: as §1

NCI-H2405 = test system: NCI-H2405
Summary of the method: as §1

NCI-H322M = test system: NCI-H322M
Summary of the method: as §1

NCI-H460 = test system: NCI-H460
Summary of the method: as §1

NCI-H647 = test system: NCI-H647
Summary of the method: as §1

NCI-H838 = test system: NCI-H838
Summary of the method: as §1

PC-14 = test system: PC-14
Summary of the method: as §1

## Cc1cn(-c2cc(NC(=O)c3ccc(C)c(Nc4nccc(-c5cccnc5)n4)c3)cc(C(F)(F)F)c2)cn1 [Nilotinib] + CC1(C)CCC(c2ccc(Cl)cc2)=C(CN2CCN(c3ccc(C(=O)NS(=O)(=O)c4ccc(N[C@H](CCN5CCOCC5)CSc5ccccc5)c(S(=O)(=O)C(F)(F)F)c4)cc3)CC2)C1 [Navitoclax] (partner 0.5 µM)
201T; first compound 0.001 µM
  relative viability: 1.22
201T; first compound 0.003162 µM
  relative viability: 1.29
201T; first compound 0.01 µM
  relative viability: 1.25
201T; first compound 0.1 µM
  relative viability: 1.21
BEN; first compound 0.001 µM
  relative viability: 0.0648
BEN; first compound 0.003162 µM
  relative viability: 0.0542
BEN; first compound 0.01 µM
  relative viability: 0.0592
BEN; first compound 0.1 µM
  relative viability: 0.0654
EPLC-272H; first compound 0.001 µM
  relative viability: 1.1
EPLC-272H; first compound 0.003162 µM
  relative viability: 1.32
EPLC-272H; first compound 0.01 µM
  relative viability: 1.5
EPLC-272H; first compound 0.03162 µM
  relative viability: 0.804
EPLC-272H; first compound 0.1 µM
  relative viability: 1.28
HCC-15; first compound 0.001 µM
  relative viability: 0.631
HCC-15; first compound 0.003162 µM
  relative viability: 0.824
HCC-15; first compound 0.01 µM
  relative viability: 0.716
HCC-15; first compound 0.03162 µM
  relative viability: 0.511
HCC-15; first compound 0.1 µM
  relative viability: 0.57
HCC-78; first compound 0.001 µM
  relative viability: 0.876
HCC-78; first compound 0.003162 µM
  relative viability: 0.692
HCC-78; first compound 0.01 µM
  relative viability: 0.945
HCC-78; first compound 0.03162 µM
  relative viability: 0.724
HCC-78; first compound 0.1 µM
  relative viability: 0.737
LCLC-97TM1; first compound 0.001 µM
  relative viability: 0.322
LCLC-97TM1; first compound 0.003162 µM
  relative viability: 0.425
LCLC-97TM1; first compound 0.01 µM
  relative viability: 0.478
LCLC-97TM1; first compound 0.03162 µM
  relative viability: 0.445
LCLC-97TM1; first compound 0.1 µM
  relative viability: 0.379
LU99A; first compound 0.001 µM
  relative viability: 0.761
LU99A; first compound 0.003162 µM
  relative viability: 0.904
LU99A; first compound 0.01 µM
  relative viability: 0.985
LU99A; first compound 0.03162 µM
  relative viability: 0.76
LU99A; first compound 0.1 µM
  relative viability: 0.479
NCI-H1355; first compound 0.001 µM
  relative viability: 1
NCI-H1355; first compound 0.003162 µM
  relative viability: 1.14
NCI-H1355; first compound 0.01 µM
  relative viability: 1.12
NCI-H1355; first compound 0.03162 µM
  relative viability: 0.928
NCI-H1355; first compound 0.1 µM
  relative viability: 0.893
NCI-H1395; first compound 0.001 µM
  relative viability: 1.03
NCI-H1395; first compound 0.003162 µM
  relative viability: 0.815
NCI-H1395; first compound 0.01 µM
  relative viability: 1.1
NCI-H1395; first compound 0.03162 µM
  relative viability: 1.11
NCI-H1395; first compound 0.1 µM
  relative viability: 1.05
NCI-H2009; first compound 0.001 µM
  relative viability: 1.09
NCI-H2009; first compound 0.003162 µM
  relative viability: 1.19
NCI-H2009; first compound 0.01 µM
  relative viability: 1.21
NCI-H2009; first compound 0.03162 µM
  relative viability: 1.19
NCI-H2009; first compound 0.1 µM
  relative viability: 1.23
NCI-H2085; first compound 0.001 µM
  relative viability: 1.12
NCI-H2085; first compound 0.003162 µM
  relative viability: 1.19
NCI-H2085; first compound 0.01 µM
  relative viability: 1.38
NCI-H2085; first compound 0.03162 µM
  relative viability: 0.957
NCI-H2085; first compound 0.1 µM
  relative viability: 1.03
NCI-H2126; first compound 0.001 µM
  relative viability: 0.861
NCI-H2126; first compound 0.003162 µM
  relative viability: 0.891
NCI-H2126; first compound 0.01 µM
  relative viability: 0.89
NCI-H2126; first compound 0.03162 µM
  relative viability: 0.846
NCI-H2126; first compound 0.1 µM
  relative viability: 0.82
NCI-H2228; first compound 0.001 µM
  relative viability: 0.662
NCI-H2228; first compound 0.003162 µM
  relative viability: 1.1
NCI-H2228; first compound 0.01 µM
  relative viability: 0.927
NCI-H2228; first compound 0.03162 µM
  relative viability: 0.826
NCI-H2228; first compound 0.1 µM
  relative viability: 0.763
NCI-H23; first compound 0.001 µM
  relative viability: 0.78
NCI-H23; first compound 0.003162 µM
  relative viability: 0.839
NCI-H23; first compound 0.01 µM
  relative viability: 1.09
NCI-H23; first compound 0.03162 µM
  relative viability: 0.605
NCI-H23; first compound 0.1 µM
  relative viability: 0.721
NCI-H2405; first compound 0.001 µM
  relative viability: 0.733
NCI-H2405; first compound 0.003162 µM
  relative viability: 0.761
NCI-H2405; first compound 0.01 µM
  relative viability: 0.764
NCI-H2405; first compound 0.03162 µM
  relative viability: 0.596
NCI-H2405; first compound 0.1 µM
  relative viability: 0.439
NCI-H322M; first compound 0.001 µM
  relative viability: 1.09
NCI-H322M; first compound 0.003162 µM
  relative viability: 1.51
NCI-H322M; first compound 0.03162 µM
  relative viability: 0.954
NCI-H322M; first compound 0.1 µM
  relative viability: 1.16
NCI-H460; first compound 0.001 µM
  relative viability: 1.02
NCI-H460; first compound 0.003162 µM
  relative viability: 1.48
NCI-H460; first compound 0.01 µM
  relative viability: 1.76
NCI-H460; first compound 0.03162 µM
  relative viability: 0.628
NCI-H460; first compound 0.1 µM
  relative viability: 0.975
NCI-H647; first compound 0.001 µM
  relative viability: 0.952
NCI-H647; first compound 0.003162 µM
  relative viability: 1.42
NCI-H647; first compound 0.01 µM
  relative viability: 1.26
NCI-H647; first compound 0.03162 µM
  relative viability: 0.997
NCI-H647; first compound 0.1 µM
  relative viability: 0.974
NCI-H838; first compound 0.001 µM
  relative viability: 1.09
NCI-H838; first compound 0.003162 µM
  relative viability: 1.42
NCI-H838; first compound 0.01 µM
  relative viability: 1.54
NCI-H838; first compound 0.03162 µM
  relative viability: 1.05
NCI-H838; first compound 0.1 µM
  relative viability: 1.15
PC-14; first compound 0.003162 µM
  relative viability: 1.09
PC-14; first compound 0.01 µM
  relative viability: 1.19
PC-14; first compound 0.03162 µM
  relative viability: 0.882
PC-14; first compound 0.1 µM
  relative viability: 1.07

— the supplement of paper PMC10307832
